Where two headings read alike, the source gives them in different places.
How the values were obtained:
Type in all cases: biochemical
human Lck enzyme = molecular target: T1, human Lck enzyme (Homo sapiens, UniProt P06239); assay: Lck enzyme inhibitory activity (time-resolved fluorometry, biotinylated peptide phosphorylation); settings: read-out: LCK_IC50
T1 construct: purchased Carna Biosciences, Inc. 08-170
How it was run: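 Readout pairs a europium cryptate-labelled anti-phosphotyrosine antibody with XL665-streptavidin, measured by time-resolved fluorescence. IC50 derived from percent inhibition against untreated controls.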

human Yes1 enzyme = molecular target: T2, human Yes1 enzyme (Homo sapiens, UniProt P07947); assay: Yes1 enzyme inhibitory activity (time-resolved fluorometry, biotinylated peptide phosphorylation); settings: read-out: YES_IC50
T2 construct: made in house
How it was run: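 Inhibition was expressed against a compound-free control to give IC50, using TR-FRET read-out (Eu-cryptate anti-pTyr antibody, streptavidin-XL665).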

human Src enzyme = molecular target: T3, human Src enzyme (Homo sapiens, UniProt P12931); assay: Src enzyme inhibitory activity (time-resolved fluorometry, biotinylated peptide phosphorylation); settings: read-out: SRC_IC50
T3 construct: purchased Carna Biosciences, Inc. 08-173
How it was run: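 Compounds were tested for blocking tyrosine phosphorylation of a biotinylated peptide substrate by recombinant human Src. Phosphorylated product was quantified by time-resolved fluorometry using europium cryptate and XL665 conjugates, and IC50 was calculated against the compound-free control.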

[1] = biotinylated peptide phosphorylation

T1 sequence (P06239 whole entry): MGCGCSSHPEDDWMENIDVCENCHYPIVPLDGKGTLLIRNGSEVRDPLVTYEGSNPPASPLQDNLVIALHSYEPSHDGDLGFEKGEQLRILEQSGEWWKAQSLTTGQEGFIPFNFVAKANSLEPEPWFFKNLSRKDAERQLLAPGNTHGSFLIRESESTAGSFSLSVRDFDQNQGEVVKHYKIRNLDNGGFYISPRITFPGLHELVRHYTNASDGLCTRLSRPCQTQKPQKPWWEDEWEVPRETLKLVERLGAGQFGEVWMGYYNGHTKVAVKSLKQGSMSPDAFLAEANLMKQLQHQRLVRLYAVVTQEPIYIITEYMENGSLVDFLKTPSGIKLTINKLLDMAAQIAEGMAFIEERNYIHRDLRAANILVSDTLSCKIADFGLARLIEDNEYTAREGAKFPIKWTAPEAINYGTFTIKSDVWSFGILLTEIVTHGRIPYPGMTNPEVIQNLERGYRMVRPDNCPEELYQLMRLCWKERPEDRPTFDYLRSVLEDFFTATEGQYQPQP
T3 sequence (P12931 whole entry): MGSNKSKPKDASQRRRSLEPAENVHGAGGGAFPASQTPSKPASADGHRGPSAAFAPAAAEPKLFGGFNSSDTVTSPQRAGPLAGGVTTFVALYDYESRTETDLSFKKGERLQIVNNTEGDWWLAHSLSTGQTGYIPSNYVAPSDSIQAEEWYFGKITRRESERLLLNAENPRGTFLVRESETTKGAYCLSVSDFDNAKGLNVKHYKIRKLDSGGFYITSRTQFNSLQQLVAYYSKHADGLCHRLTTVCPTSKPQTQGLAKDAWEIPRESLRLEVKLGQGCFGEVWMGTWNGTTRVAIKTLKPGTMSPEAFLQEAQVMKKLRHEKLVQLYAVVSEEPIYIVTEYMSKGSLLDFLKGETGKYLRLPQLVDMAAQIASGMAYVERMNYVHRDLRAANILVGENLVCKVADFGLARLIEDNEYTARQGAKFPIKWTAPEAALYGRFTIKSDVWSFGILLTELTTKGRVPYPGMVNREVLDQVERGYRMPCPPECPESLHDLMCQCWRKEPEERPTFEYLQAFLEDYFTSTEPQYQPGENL
T2 sequence (P07947 whole entry): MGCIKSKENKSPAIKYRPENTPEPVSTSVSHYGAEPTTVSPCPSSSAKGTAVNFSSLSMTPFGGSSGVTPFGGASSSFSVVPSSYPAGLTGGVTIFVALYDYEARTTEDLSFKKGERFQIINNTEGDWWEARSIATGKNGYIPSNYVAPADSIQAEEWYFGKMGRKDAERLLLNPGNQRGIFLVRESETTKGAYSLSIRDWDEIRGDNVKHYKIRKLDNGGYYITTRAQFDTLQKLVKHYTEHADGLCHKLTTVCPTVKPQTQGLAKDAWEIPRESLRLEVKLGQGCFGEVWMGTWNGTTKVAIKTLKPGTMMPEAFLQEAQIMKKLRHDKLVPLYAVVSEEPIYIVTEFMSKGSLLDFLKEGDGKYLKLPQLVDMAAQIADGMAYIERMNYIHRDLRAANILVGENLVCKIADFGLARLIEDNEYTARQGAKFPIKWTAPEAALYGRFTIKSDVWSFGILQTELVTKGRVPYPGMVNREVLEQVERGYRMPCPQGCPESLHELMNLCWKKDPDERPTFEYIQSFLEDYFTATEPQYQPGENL

IC50 (human Lck enzyme; [1])	IC50 (human Yes1 enzyme; [1])	IC50 (human Src enzyme; [1])	IC50 (human Lck enzyme)	IC50 (human Yes1 enzyme)	IC50 (human Src enzyme)	SMILES
2.2 nM	1.1 nM	26 nM	–	–	–	Cc1cc(Oc2ccccc2F)ncc1-n1ncc(C(=O)c2cc3cc(OC(F)F)c(N4CCCC4=O)cc3[nH]2)c1N [Example 4-25-014, 1-[2-[5-amino-1-[6-(2-fluorophenoxy)-4-methylpyridin-3-yl]pyrazole-4-carbonyl]-5-(difluoromethoxy)-1H-indol-6-yl]pyrrolidin-2-one]
8.2 nM	4.9 nM	44 nM	–	–	–	Cc1cc(Oc2ccccc2F)cc(F)c1-n1ncc(C(=O)c2cc3cc(OC(F)F)c(N4CCCC4=O)cc3[nH]2)c1N [Example 4-25-015, 1-[2-[5-amino-1-[2-fluoro-4-(2-fluorophenoxy)-6-methylphenyl]pyrazole-4-carbonyl]-5-(difluoromethoxy)-1H-indol-6-yl]pyrrolidin-2-one]
1.5 nM	0.48 nM	13 nM	–	–	–	Cc1cc(Oc2ccccc2F)ncc1-n1ncc(C(=O)c2cc3cc(OCC(F)F)c(N4CCOC4=O)cc3[nH]2)c1N [Example 4-25-016, 3-{2-{5-amino-1-[6-(2-fluorophenoxy)-4-methylpyridin-3-yl]pyrazole-4-carbonyl}-5-(2,2-difluoroethoxy)-1H-indol-6-yl}-1,3-oxazolidin-2-one]
2.3 nM	1.3 nM	6.4 nM	–	–	–	Cc1cc(Oc2ccccc2F)cc(F)c1-n1ncc(C(=O)c2cc3cc(OCC(F)F)c(N4CCOC4=O)cc3[nH]2)c1N [Example 4-25-017, 3-[2-[5-amino-1-[2-fluoro-4-(2-fluorophenoxy)-6-methylphenyl]pyrazole-4-carbonyl]-5-(2,2-difluoroethoxy)-1H-indol-6-yl]-1,3-oxazolidin-2-one]
1.7 nM	0.72 nM	20 nM	–	–	–	Cc1cc(Oc2ccccc2F)ncc1-n1ncc(C(=O)c2cc3cc(OC(F)F)c(N4CCOC4=O)cc3[nH]2)c1N [Example 4-25-018, 3-[2-[5-amino-1-[6-(2-fluorophenoxy)-4-methylpyridin-3-yl]pyrazole-4-carbonyl]-5-(difluoromethoxy)-1H-indol-6-yl]-1,3-oxazolidin-2-one]
13 nM	5.2 nM	43 nM	–	–	–	Cc1cc(Oc2ccccc2F)cc(F)c1-n1ncc(C(=O)c2cc3cc(OC(F)F)c(N4CCOC4=O)cc3[nH]2)c1N [Example 4-25-019, 3-[2-[5-amino-1-[2-fluoro-4-(2-fluorophenoxy)-6-methylphenyl]pyrazole-4-carbonyl]-5-(difluoromethoxy)-1H-indol-6-yl]-1,3-oxazolidin-2-one]
2.3 nM	1.2 nM	13 nM	–	–	–	Cc1cc(Oc2ccccc2F)ncc1-n1ncc(C(=O)c2cc3cc(OCC(F)F)c(N4CCOCC4)cc3[nH]2)c1N [Example 4-25-020, {5-amino-1-[6-(2-fluorophenoxy)-4-methylpyridin-3-yl]pyrazol-4-yl}-[5-(2,2-difluoroethoxy)-6-morpholin-4-yl-1H-indol-2-yl]methanone]
4.6 nM	2.1 nM	16 nM	–	–	–	Cc1cc(Oc2ccccc2F)cc(F)c1-n1ncc(C(=O)c2cc3cc(OCC(F)F)c(N4CCOCC4)cc3[nH]2)c1N [Example 4-25-021, [5-amino-1-[2-fluoro-4-(2-fluorophenoxy)-6-methylphenyl]pyrazol-4-yl]-[5-(2,2-difluoroethoxy)-6-morpholin-4-yl-1H-indol-2-yl]methanone]
10 nM	5.9 nM	59 nM	–	–	–	Cc1cc(Oc2ccccc2F)ncc1-n1ncc(C(=O)c2cc3cc(OC(F)F)c(N4CCOCC4)cc3[nH]2)c1N [Example 4-25-022, [5-amino-1-[6-(2-fluorophenoxy)-4-methylpyridin-3-yl]pyrazol-4-yl]-[5-(difluoromethoxy)-6-morpholin-4-yl-1H-indol-2-yl]methanone]
16 nM	6.3 nM	86 nM	–	–	–	Cc1cc(Oc2c(F)cccc2F)ncc1-n1ncc(C(=O)c2cc3cc(OC(F)F)c(N4CCOCC4)cc3[nH]2)c1N [Example 4-25-023, [5-amino-1-[6-(2,6-difluorophenoxy)-4-methylpyridin-3-yl]pyrazol-4-yl]-[5-(difluoromethoxy)-6-morpholin-4-yl-1H-indol-2-yl]methanone]
29 nM	0.69 nM	55 nM	–	–	–	Cc1cc(Oc2ccccc2F)ccc1-n1ncc(C(=O)c2cc3cc(OC(F)F)c(N4CCOCC4)cc3[nH]2)c1N [Example 4-25-024, [5-amino-1-[4-(2-fluorophenoxy)-2-methylphenyl]pyrazol-4-yl]-[5-(difluoromethoxy)-6-morpholin-4-yl-1H-indol-2-yl]methanone]
31 nM	17 nM	80 nM	–	–	–	Cc1cc(Oc2ccccc2F)cc(F)c1-n1ncc(C(=O)c2cc3cc(OC(F)F)c(N4CCOCC4)cc3[nH]2)c1N [Example 4-25-025, [5-amino-1-[2-fluoro-4-(2-fluorophenoxy)-6-methylphenyl]pyrazol-4-yl]-[5-(difluoromethoxy)-6-morpholin-4-yl-1H-indol-2-yl]methanone]
1.6 nM	0.92 nM	12 nM	–	–	–	Cc1cc(Oc2ccccc2F)ncc1-n1ncc(C(=O)c2cc3cc(OCC(F)F)c(N4CCC(N5CCOCC5)CC4)cc3[nH]2)c1N [Example 4-25-026, {5-amino-1-[6-(2-fluorophenoxy)-4-methylpyridin-3-yl]pyrazol-4-yl}-[5-(2,2-difluoroethoxy)-6-(4-morpholin-4-ylpiperidin-1-yl)-1H-indol-2-yl]methanone]
2.1 nM	0.8 nM	23 nM	–	–	–	Cc1cc(Oc2c(F)cccc2F)ncc1-n1ncc(C(=O)c2cc3cc(OCC(F)F)c(N4CCC(N5CCOCC5)CC4)cc3[nH]2)c1N [Example 4-25-027, [5-amino-1-[6-(2,6-difluorophenoxy)-4-methylpyridin-3-yl]pyrazol-4-yl]-[5-(2,2-difluoroethoxy)-6-(4-morpholin-4-ylpiperidin-1-yl)-1H-indol-2-yl]methanone]
4.9 nM	0.94 nM	13 nM	–	–	–	Cc1cc(Oc2ccccc2F)ccc1-n1ncc(C(=O)c2cc3cc(OCC(F)F)c(N4CCC(N5CCOCC5)CC4)cc3[nH]2)c1N [Example 4-25-028, [5-amino-1-[4-(2-fluorophenoxy)-2-methylphenyl]pyrazol-4-yl]-[5-(2,2-difluoroethoxy)-6-(4-morpholin-4-ylpiperidin-1-yl)-1H-indol-2-yl]methanone]
6.8 nM	2.4 nM	21 nM	–	–	–	Cc1cc(Oc2ccccc2F)cc(F)c1-n1ncc(C(=O)c2cc3cc(OCC(F)F)c(N4CCC(N5CCOCC5)CC4)cc3[nH]2)c1N [Example 4-25-029, [5-amino-1-[2-fluoro-4-(2-fluorophenoxy)-6-methylphenyl]pyrazol-4-yl]-[5-(2,2-difluoroethoxy)-6-(4-morpholin-4-ylpiperidin-1-yl)-1H-indol-2-yl]methanone]
9.1 nM	2.6 nM	38 nM	–	–	–	Cc1cc(Oc2ccccc2F)ncc1-n1ncc(C(=O)c2cc3cc(OC(F)F)c(N4CCC(N5CCOCC5)CC4)cc3[nH]2)c1N [Example 4-25-030, [5-amino-1-[6-(2-fluorophenoxy)-4-methylpyridin-3-yl]pyrazol-4-yl]-[5-(difluoromethoxy)-6-(4-morpholin-4-ylpiperidin-1-yl)-1H-indol-2-yl]methanone]
7.2 nM	1.9 nM	48 nM	–	–	–	Cc1cc(Oc2c(F)cccc2F)ncc1-n1ncc(C(=O)c2cc3cc(OC(F)F)c(N4CCC(N5CCOCC5)CC4)cc3[nH]2)c1N [Example 4-25-031, [5-amino-1-[6-(2,6-difluorophenoxy)-4-methylpyridin-3-yl]pyrazol-4-yl]-[5-(difluoromethoxy)-6-(4-morpholin-4-ylpiperidin-1-yl)-1H-indol-2-yl]methanone]
11 nM	0.83 nM	48 nM	–	–	–	Cc1cc(Oc2ccccc2F)ccc1-n1ncc(C(=O)c2cc3cc(OC(F)F)c(N4CCC(N5CCOCC5)CC4)cc3[nH]2)c1N [Example 4-25-032, [5-amino-1-[4-(2-fluorophenoxy)-2-methylphenyl]pyrazol-4-yl]-[5-(difluoromethoxy)-6-(4-morpholin-4-ylpiperidin-1-yl)-1H-indol-2-yl]methanone]
7.6 nM	1.5 nM	26 nM	–	–	–	Cc1cc(Oc2ccccc2F)ccc1-n1ncc(C(=O)c2cc3cc(F)c(NS(=O)(=O)CC(=O)N4CCCC4)cc3[nH]2)c1N [Example 4-26-001, N-(2-(5-amino-1-(4-(2-fluorophenoxy)-2-methylphenyl)-1H-pyrazole-4-carbonyl)-5-fluoro-1H-indol-6-yl)-2-oxo-2-(pyrrolidin-1-yl)ethanesulfonamide]
–	–	–	2.9 nM	1.1 nM	7.6 nM	CC(C)N1CCC(c2cc3cc(C(=O)c4cnn(-c5ccc(Oc6ccccc6Cl)cc5)c4N)[nH]c3cc2F)CC1 [Example 5-1-001, [5-amino-1-[4-(2-chlorophenoxy)phenyl]pyrazol-4-yl]-[6-fluoro-5-(1-propan-2-ylpiperidin-4-yl)-1H-indol-2-yl]methanone]
–	–	–	2.2 nM	0.87 nM	6.1 nM	CC(C)N1CCC(c2cc3cc(C(=O)c4cnn(-c5ccc(Oc6cccc(F)c6)cc5F)c4N)[nH]c3cc2F)CC1 [Example 5-1-002, [5-amino-1-[2-fluoro-4-(3-fluorophenoxy)phenyl]pyrazol-4-yl]-[6-fluoro-5-(1-propan-2-ylpiperidin-4-yl)-1H-indol-2-yl]methanone]

Source: patent publication US10479780B2, “Aminopyrazole derivatives” (Chugai Seiyaku Kabushiki Kaisha, priority 2015, dated 2019)
